Assay: Biodistribution of 99mTc complexes in female CD-1 mice after intravenous injection
Type: in vivo
Details: i.v.
Description: These studies have been designed as a preliminary screening tool to evaluate the biological profile of the cationic tricarbonyl complexes. The biodistribution of the complexes was evaluated in groups of 5 female CD-1 mice (randomly bred, Charles River) weighing approximately 20-25 g each and have been performed according to EEC Legislation (National Law 129/92) on ethical and animal care. Animals were intravenously injected with 100 μL (1.5-8.0 MBq) of each preparation via the tail vein and were maintained on normal diet ad libitum. […] The injected radioactive dose and the radioactivity remaining in the animal after sacrifice were measured in a dose calibrator (Aloka, Curiemeter IGC-3, Tokyo, Japan). The difference between the radioactivity in the injected and sacrificed animal was assumed to be due to total excretion from whole body animal. Blood samples were taken by cardiac puncture at sacrifice. Tissue samples of the main organs were then removed, weighted and counted in a gamma counter (Berthold). Biodistribution results were expressed as percentage of the injected dose per organ (% ID/organ) and/or per gram tissue (% ID/g). For blood, total activity was calculated assuming that this organ constitutes 6% of the total weight, respectively. The remaining activity in the carcass was also measured in a dose calibrator.

Blood uptake (5 min p.i.): 2.0 ± 0.4 % ID/g of wet organ
Heart uptake (5 min p.i.): 9.4 ± 0.4 % ID/g of wet organ
Heart/Blood ratio (5 min p.i.): 4.1 ± 0.7
Heart/Liver ratio (5 min p.i.): 0.9 ± 0.2
Heart/Lung ratio (5 min p.i.): 3.5 ± 0.8
Kidney uptake (5 min p.i.): 34.2 ± 2.4 % ID/g of wet organ
Liver uptake (5 min p.i.): 9.0 ± 1.8 % ID/g of wet organ
Lung uptake (5 min p.i.): 2.4 ± 0.6 % ID/g of wet organ
Blood uptake (1 h (60 min) p.i.): 1.2 ± 0.4 % ID/g of wet organ
Heart uptake (1 h (60 min) p.i.): 8.0 ± 0.6 % ID/g of wet organ
Heart/Blood ratio (1 h (60 min) p.i.): 7.9 ± 3.6
Heart/Liver ratio (1 h (60 min) p.i.): 1.4 ± 0.1
Heart/Lung ratio (1 h (60 min) p.i.): 6.3 ± 0.6
Kidney uptake (1 h (60 min) p.i.): 14.8 ± 6.1 % ID/g of wet organ
Liver uptake (1 h (60 min) p.i.): 5.6 ± 0.3 % ID/g of wet organ
Lung uptake (1 h (60 min) p.i.): 1.3 ± 0.2 % ID/g of wet organ
Blood uptake (2 h (120 min) p.i.): 1.1 ± 0.3 % ID/g of wet organ
Heart uptake (2 h (120 min) p.i.): 7.9 ± 1.0 % ID/g of wet organ
Heart/Blood ratio (2 h (120 min) p.i.): 7.4 ± 2.3
Heart/Liver ratio (2 h (120 min) p.i.): 1.8 ± 0.7
Heart/Lung ratio (2 h (120 min) p.i.): 9.2 ± 1.1
Kidney uptake (2 h (120 min) p.i.): 9.7 ± 1.8 % ID/g of wet organ
Liver uptake (2 h (120 min) p.i.): 5.0 ± 2.1 % ID/g of wet organ
Lung uptake (2 h (120 min) p.i.): 0.9 ± 0.2 % ID/g of wet organ
SMILES: [C-]#[N+]CC(C)(C)OC.[C-]#[N+]CC(C)(C)OC.[C-]#[N+]CC(C)(C)OC.[C-]#[N+]CC(C)(C)OC.[C-]#[N+]CC(C)(C)OC.[C-]#[N+]CC(C)(C)OC.[Tc] [^99mTc-Sestamibi]

Reference: US8372379B2, “Technetium-99m (I) tricarbonyl complexes with tridentate chelators for myocardium imaging” (Mallinckrodt LLC, priority 2006, dated 2013)
